Values of other authors as cited in article PMC12315921 (Translational Vision Science & Technology, 2025).
Where two headings read alike, the source gives them in different places.

Legend:
[1] = test system: PKM2
[2] = test system: PKM2; remark: listed apart in the source

Kd [1]	SMILES	AC50 [1]	AC50 of PK activation ([2]; in the absence of FBP)	AC50 of PK activation ([2]; in the presence of FBP)
nanomolar range	O=C(COP(=O)(O)O)[C@@H](O)[C@H](O)[C@H](O)COP(=O)(O)O [FBP, fructose 1,6-biphosphate]	nanomolar range	–	–
–	Nc1cccc(S(=O)(=O)N2CCCN(S(=O)(=O)c3ccc4c(c3)OCCO4)CC2)c1 [DASA-58]	–	micromolar	low nanomolar
